According to patent EP4745118A1, “HYDROXAMIC ACID COMPOUND OR PHARMACEUTICALLY ACCEPTABLE SALT THEREOF, AND USE THEREOF AND PREPARATION METHOD THEREFOR” (priority 2023, dated 2025):

Assays:
Shigella flexneri = test: In vitro antibacterial activity, agar dilution method (MIC); assay type: cell-based; details: Shigella flexneri ATCC 12022, 35°C, 18 hours
Method: According to the relevant operating procedures of the Clinical Laboratory Standards Institute (CLSI) in the United States, an antimicrobial susceptibility testing was conducted using the agar dilution method. A 1920 µg/mL stock solution was serially diluted twofold with sterile water to obtain dilutions of 960, 480, 240, 120, 60, 30, 15, 7.5, 3.75, 1.88, 0.94, 0.47 µg/mL, and 1 mL of the dilution was taken respectively from the dilutions with different concentrations and added to a Petri dish, to which 14 mL of melted MH agar medium was added and mixed thoroughly, and the final concentration of the drug in the petri dish is 128, 64, 32, 16, 8, 4, 2, 1, 0.5, 0.25, 0.12, 0.06, and 0.03 µ g/mL, respectively. The agar was allowed to solidify and set aside for later use.
(§1) The test bacteria were propagated in broth and adjusted to a turbidity of 0.5 McFarland (approximately 1-2 × 10^8 CFU/mL) using a turbidimeter before inoculation. The 0.5 McFarland bacterial solution was then diluted 10-fold in broth (approximately 1-2 × 10^7 CFU/mL). A multipoint inoculator was used to inoculate the above bacterial solution onto a series of plates containing different concentrations of drugs (with an inoculation amount of approximately 10^4 CFU per inoculation site). After incubation at a constant temperature of 35°C for 18 hours, results were observed. The minimum concentration of drugs contained in sterile growth plates was determined as the Minimal Inhibitory Concentration (MIC).

Enterobacter cloacae = test: as above; assay type: cell-based; details: Enterobacter cloacae CDC1000654 (NDM-1-producing); agar dilution, 35°C, 18 hours
Method: According to the relevant operating procedures of the Clinical Laboratory Standards Institute (CLSI) in the United States, an antimicrobial susceptibility testing was conducted using the agar dilution method. […] The agar was allowed to solidify and set aside for later use.
as §1

[1] = test system: Escherichia coli ATCC BAA2469 (CRE, NDM-1-producing); test: In vivo antibacterial activity, intraperitoneal infection in mice (survival over 7 days); details: for Animal survival rate / Number of surviving animals: mice, one intravenous administration 1 hour post-infection, 7 days; for Number of surviving animals: 5 animals per group
Method: Mice were randomly grouped based on body weight, with 5 mice in each group, regardless of gender. The infectious bacteria was Escherichia coli ATCC BAA2469 (CRE, NDM-1-producing). The test bacterial solution was diluted with 5% high-activity dry yeast. Mice received intraperitoneal injection of 0.5 mL of 100% minimum lethal dose (100% MLD) bacterial solution. One intravenous administration was given at 1 hour post-infection at a dose volume of 10 mL/kg. Animal survival numbers were observed over 7 days, and survival rates were calculated.

Serratia marcescens = test: In vitro antibacterial activity, agar dilution method (MIC); assay type: cell-based; details: Serratia marcescens ATCC 21074; agar dilution, 35°C, 18 hours
Method: (§2) According to the relevant operating procedures of the Clinical Laboratory Standards Institute (CLSI) in the United States, an antimicrobial susceptibility testing was conducted using the agar dilution method. […]. The agar was allowed to solidify and set aside for later use.
as §1

Klebsiella pneumoniae = test: as above; assay type: cell-based; details: agar dilution, 35°C, 18 hours
Method: as §2, §1

Proteus mirabilis = test: as above; assay type: cell-based; details: Proteus mirabilis ATCC 49565; agar dilution, 35°C, 18 hours
Method: as §2, §1

Proteus vulgaris = test: as above; assay type: cell-based; details: Proteus vulgaris ATCC 29905; agar dilution, 35°C, 18 hours
Method: as §2, §1

Pseudomonas aeruginosa = test: as above; assay type: cell-based; details: Pseudomonas aeruginosa PAO1; agar dilution, 35°C, 18 hours
Method: as §2, §1

Escherichia coli = test: as above; assay type: cell-based; details: agar dilution, 35°C, 18 hours
Method: as §2, §1

Enterobacter aerogenes = test: as above; assay type: cell-based; details: Enterobacter aerogenes ATCC 13048; agar dilution, 35°C, 18 hours
Method: as §2, §1

Citrobacter freundii = test: as above; assay type: cell-based; details: Citrobacter freundii ATCC 43864; agar dilution, 35°C, 18 hours
Method: as §2, §1

Pantoea agglomerans = test: as above; assay type: cell-based; details: Pantoea agglomerans ATCC 27993; agar dilution, 35°C, 18 hours
Method: as §2, §1

## Colistin
Shigella flexneri
  MIC: 0.5 µg/mL
Enterobacter cloacae
  MIC: 0.5 µg/mL
[1]; mice with intraperitoneal infection by Escherichia coli ATCC BAA2469, intravenous
  effective dose of in vivo antibacterial activity: below 1.5 mg/kg
[1]; dose 0.35 mg/kg
  Animal survival rate: 0%
  Number of surviving animals: 0 individuals
[1]; dose 0.7 mg/kg
  Animal survival rate: 20%
  Number of surviving animals: 1 individuals
[1]; dose 1.4 mg/kg
  Animal survival rate: 80%
  Number of surviving animals: 4 individuals
Serratia marcescens
  MIC: >128 µg/mL
Klebsiella pneumoniae; Klebsiella pneumoniae 09-20 (mcr-1)
  MIC: 16 µg/mL
Klebsiella pneumoniae; Klebsiella pneumoniae 17-R27 (CRE)
  MIC: 16 µg/mL
Klebsiella pneumoniae; Klebsiella pneumoniae 18-8 (ESBLs-producing)
  MIC: 0.5 µg/mL
Klebsiella pneumoniae; Klebsiella pneumoniae ATCC 700603 (ESBLs-producing)
  MIC: 0.5 µg/mL
Klebsiella pneumoniae; Klebsiella pneumoniae ATCC BAA-2146 (CRE, NDM-1-producing)
  MIC: 1 µg/mL
Proteus mirabilis
  MIC: >128 µg/mL
Proteus vulgaris
  MIC: >128 µg/mL
Pseudomonas aeruginosa
  MIC: 2 µg/mL
Escherichia coli; Escherichia coli 13-43 (mcr-1)
  MIC: 16 µg/mL
Escherichia coli; Escherichia coli 17-R28 (CRE, NDM-1-producing)
  MIC: 0.5 µg/mL
Escherichia coli; Escherichia coli ATCC 2469 (CRE, NDM-1-producing)
  MIC: 0.5 µg/mL
Escherichia coli; Escherichia coli ATCC 35218 (ESBLs-producing)
  MIC: 0.5 µg/mL
Enterobacter aerogenes
  MIC: 0.5 µg/mL
Citrobacter freundii
  MIC: 0.5 µg/mL
Pantoea agglomerans
  MIC: 0.5 µg/mL
